# In patent publication US12139480B2, “5-thiazolecarboxamide kinase inhibitor and uses thereof” (iOmx Therapeutics AG, priority 2018, dated 2024):
# Read-outs that look alike come from different tables or passages of the source.
# Experiments:
# PDGFR-alpha = target: T1, PDGFR-alpha (Homo sapiens, UniProt P16234); assay: single-point (1 uM) inhibition assay (ProQinase Kinase Profiler); assay type: biochemical; conditions: read-out: % residual activity class (FIG. 3)
# T1 construct: purchased ProQinase
# FRK = target: T2, FRK (Homo sapiens, UniProt P42685); assay: as above; assay type: biochemical; conditions: 1 uM compound, read-out: % residual activity class (FIG. 3)
# T2 construct: purchased ProQinase
# ACV-R1 = target: T3, ACV-R1 (Homo sapiens, UniProt Q04771); assay: as above; assay type: biochemical; conditions: read-out: % residual activity class (FIG. 3)
# T3 construct: purchased ProQinase
# p38-alpha = target: T4, p38-alpha (Homo sapiens, UniProt Q16539); assay: as above; assay type: biochemical; conditions: read-out: % residual activity class (FIG. 3)
# T4 construct: purchased ProQinase
# MDCK-MDR1 cells = conditions: dog
# ACK1 = target: T5, ACK1 (Homo sapiens, UniProt Q07912); assay: single-point (1 uM) inhibition assay (ProQinase Kinase Profiler); assay type: biochemical; conditions: 1 uM compound, read-out: % residual activity class (FIG. 3)
# T5 construct: purchased ProQinase
# [1] = cited from earlier work
# SIK1 = target: T6, SIK1 (Homo sapiens, UniProt P57059); assay: single-point (1 uM) inhibition assay (ProQinase Kinase Profiler); assay type: biochemical; conditions: read-out: % residual activity class (FIG. 3)
# T6 construct: purchased ProQinase
# BLK = target: T7, BLK (Homo sapiens, UniProt P51451); assay: as above; assay type: biochemical; conditions: 1 uM compound, read-out: % residual activity class (FIG. 3)
# T7 construct: purchased ProQinase
# MDCK-wild type cells = conditions: dog
# EPHB2 = target: T8, EPHB2 (Homo sapiens, UniProt P29323); assay: single-point (1 uM) inhibition assay (ProQinase Kinase Profiler); assay type: biochemical; conditions: read-out: % residual activity class (FIG. 3)
# T8 construct: purchased ProQinase
# EPHA3 = target: T9, EPHA3 (Homo sapiens, UniProt P29320); assay: as above; assay type: biochemical
# T9 construct: purchased ProQinase
# TXK = target: T10, TXK (Homo sapiens, UniProt P42681); assay: as above; assay type: biochemical; conditions: 1 uM compound, read-out: % residual activity class (FIG. 3)
# T10 construct: purchased ProQinase
# RET = target: T11, RET (Homo sapiens, UniProt P07949); assay: as above; assay type: biochemical
# T11 construct: purchased ProQinase, Freiburg, Germany (Kinase Profiler panel)
# PDGFR-beta = target: T12, PDGFR-beta (Homo sapiens, UniProt P09619); assay: biochemical
# T12 construct: purchased ProQinase
# CSK = target: T13, CSK (Homo sapiens, UniProt P41240); assay: single-point (1 uM) inhibition assay (ProQinase Kinase Profiler); assay type: biochemical; conditions: 1 uM compound, read-out: % residual activity class (FIG. 3)
# T13 construct: purchased ProQinase
# ZAK = target: T14, ZAK (Homo sapiens, UniProt Q9NYL2); assay: as above; assay type: biochemical; conditions: 1 uM compound, read-out: % residual activity class (FIG. 3)
# T14 construct: purchased ProQinase
# TEC = target: T15, TEC (Homo sapiens, UniProt P42680); assay: as above; assay type: biochemical; conditions: 1 uM compound, read-out: % residual activity class (FIG. 3)
# T15 construct: purchased ProQinase
# EPHB1 = target: T16, EPHB1 (Homo sapiens, UniProt P54762); assay: as above; assay type: biochemical
# T16 construct: purchased ProQinase
# MAP4K5 = target: T17, MAP4K5 (Homo sapiens, UniProt Q9Y4K4); assay: as above; assay type: biochemical; conditions: read-out: % residual activity class (FIG. 3)
# T17 construct: purchased ProQinase
# HCK = target: T18, HCK (Homo sapiens, UniProt P08631); assay: as above; assay type: biochemical; conditions: 1 uM compound, read-out: % residual activity class (FIG. 3)
# T18 construct: purchased ProQinase
# FGR = target: T19, FGR (Homo sapiens, UniProt P09769); assay: as above; assay type: biochemical; conditions: 1 uM compound, read-out: % residual activity class (FIG. 3)
# T19 construct: purchased ProQinase
# NLK = target: T20, NLK (Homo sapiens, UniProt Q9UBE8); assay: as above; assay type: biochemical; conditions: 1 uM compound, read-out: % residual activity class (FIG. 3)
# T20 construct: purchased ProQinase
# DDR2 = target: T21, DDR2 (Homo sapiens, UniProt Q16832); assay: as above; assay type: biochemical; conditions: 1 uM compound, read-out: % residual activity class (FIG. 3)
# T21 construct: purchased ProQinase, Freiburg, Germany (Kinase Profiler panel)
# SIK2 = target: T22, SIK2 (Homo sapiens, UniProt Q9H0K1); assay: as above; assay type: biochemical; conditions: read-out: % residual activity class (FIG. 3)
# T22 construct: purchased ProQinase
# ACV-RL1 = target: T23, ACV-RL1 (Homo sapiens, UniProt P37023); assay: as above; assay type: biochemical; conditions: 1 uM compound, read-out: % residual activity class (FIG. 3)
# T23 construct: purchased ProQinase
# FYN = FYN (Homo sapiens, UniProt P06241); assay: as above; conditions: read-out: % residual activity class (FIG. 3)
# RIPK2 = target: T24, RIPK2 (Homo sapiens, UniProt O43353); assay: as above; assay type: biochemical; conditions: 1 uM compound, read-out: % residual activity class (FIG. 3)
# T24 construct: purchased ProQinase
# ACV-R1B = target: T25, ACV-R1B (Homo sapiens, UniProt P36896); assay: as above; assay type: biochemical; conditions: read-out: % residual activity class (FIG. 3)
# T25 construct: purchased ProQinase
# SIK3 = target: T26, SIK3 (Homo sapiens, UniProt Q9Y2K2); assay: as above; assay type: biochemical; conditions: read-out: % residual activity class (FIG. 3)
# T26 construct: purchased ProQinase
# SRMS = target: T27, SRMS (Homo sapiens, UniProt Q9H3Y6); assay: as above; assay type: biochemical; conditions: 1 uM compound, read-out: % residual activity class (FIG. 3)
# T27 construct: purchased ProQinase
# ABL2 = target: T28, ABL2 (Homo sapiens, UniProt P42684); assay: as above; assay type: biochemical; conditions: 1 uM compound, read-out: % residual activity class (FIG. 3)
# T28 construct: purchased ProQinase
# LYN = target: T29, LYN (Homo sapiens, UniProt P07948); assay: as above; assay type: biochemical; conditions: 1 uM compound, read-out: % residual activity class (FIG. 3)
# T29 construct: purchased ProQinase
# EPHA4 = target: T30, EPHA4 (Homo sapiens, UniProt P54764); assay: as above; assay type: biochemical
# T30 construct: purchased ProQinase
# KIT = target: T31, KIT (Homo sapiens, UniProt P10721); assay: as above; assay type: biochemical
# T31 construct: purchased ProQinase
# FLT3 = target: T32, FLT3 (Homo sapiens, UniProt P36888); assay: as above; assay type: biochemical; conditions: read-out: % residual activity class (FIG. 3)
# T32 construct: purchased ProQinase
# EPHA1 = target: T33, EPHA1 (Homo sapiens, UniProt P21709); assay: as above; assay type: biochemical
# T33 construct: purchased ProQinase
# BTK = target: T34, BTK (Homo sapiens, UniProt Q06187); assay: as above; assay type: biochemical; conditions: 1 uM compound, read-out: % residual activity class (FIG. 3)
# T34 construct: purchased ProQinase
# [2] = mouse liver microsomal stability; assay type: in vitro ADME
# [3] = read-out: Residual activity (%) at 1 uM, RET
# [4] = PDGFR-beta, 1 uM compound, read-out: % residual activity class (FIG. 3)
# [5] = read-out: Residual activity (%) at 1 uM
# [6] = read-out: % residual activity class (FIG. 3)
# T11 sequence (P07949 29-1114): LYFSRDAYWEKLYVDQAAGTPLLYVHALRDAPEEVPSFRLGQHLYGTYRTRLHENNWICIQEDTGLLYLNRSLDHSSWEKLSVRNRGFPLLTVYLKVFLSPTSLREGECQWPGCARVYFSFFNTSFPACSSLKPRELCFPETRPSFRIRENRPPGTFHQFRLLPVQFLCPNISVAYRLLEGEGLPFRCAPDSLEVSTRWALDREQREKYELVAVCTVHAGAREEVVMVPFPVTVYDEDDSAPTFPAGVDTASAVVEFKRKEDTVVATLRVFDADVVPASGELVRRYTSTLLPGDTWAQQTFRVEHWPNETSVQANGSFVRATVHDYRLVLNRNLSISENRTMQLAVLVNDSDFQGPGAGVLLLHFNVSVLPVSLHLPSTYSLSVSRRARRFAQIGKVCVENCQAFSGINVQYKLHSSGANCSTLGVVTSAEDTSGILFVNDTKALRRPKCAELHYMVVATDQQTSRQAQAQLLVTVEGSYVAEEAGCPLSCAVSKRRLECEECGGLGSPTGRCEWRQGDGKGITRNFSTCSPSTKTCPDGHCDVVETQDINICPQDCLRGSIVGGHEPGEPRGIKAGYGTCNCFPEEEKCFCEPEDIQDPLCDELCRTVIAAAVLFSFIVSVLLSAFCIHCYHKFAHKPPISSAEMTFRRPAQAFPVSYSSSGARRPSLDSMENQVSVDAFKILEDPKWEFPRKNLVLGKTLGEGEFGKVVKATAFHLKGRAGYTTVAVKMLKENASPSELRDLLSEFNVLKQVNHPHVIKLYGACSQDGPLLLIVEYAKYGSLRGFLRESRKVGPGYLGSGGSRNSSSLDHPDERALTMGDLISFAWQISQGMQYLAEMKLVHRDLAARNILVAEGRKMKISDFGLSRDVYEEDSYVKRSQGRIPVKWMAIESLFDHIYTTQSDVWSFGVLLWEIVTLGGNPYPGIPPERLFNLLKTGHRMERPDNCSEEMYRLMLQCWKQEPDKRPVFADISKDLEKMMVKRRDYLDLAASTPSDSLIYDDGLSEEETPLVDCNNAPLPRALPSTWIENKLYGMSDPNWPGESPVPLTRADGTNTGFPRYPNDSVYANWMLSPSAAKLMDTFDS
# T16 sequence (P54762 18-984): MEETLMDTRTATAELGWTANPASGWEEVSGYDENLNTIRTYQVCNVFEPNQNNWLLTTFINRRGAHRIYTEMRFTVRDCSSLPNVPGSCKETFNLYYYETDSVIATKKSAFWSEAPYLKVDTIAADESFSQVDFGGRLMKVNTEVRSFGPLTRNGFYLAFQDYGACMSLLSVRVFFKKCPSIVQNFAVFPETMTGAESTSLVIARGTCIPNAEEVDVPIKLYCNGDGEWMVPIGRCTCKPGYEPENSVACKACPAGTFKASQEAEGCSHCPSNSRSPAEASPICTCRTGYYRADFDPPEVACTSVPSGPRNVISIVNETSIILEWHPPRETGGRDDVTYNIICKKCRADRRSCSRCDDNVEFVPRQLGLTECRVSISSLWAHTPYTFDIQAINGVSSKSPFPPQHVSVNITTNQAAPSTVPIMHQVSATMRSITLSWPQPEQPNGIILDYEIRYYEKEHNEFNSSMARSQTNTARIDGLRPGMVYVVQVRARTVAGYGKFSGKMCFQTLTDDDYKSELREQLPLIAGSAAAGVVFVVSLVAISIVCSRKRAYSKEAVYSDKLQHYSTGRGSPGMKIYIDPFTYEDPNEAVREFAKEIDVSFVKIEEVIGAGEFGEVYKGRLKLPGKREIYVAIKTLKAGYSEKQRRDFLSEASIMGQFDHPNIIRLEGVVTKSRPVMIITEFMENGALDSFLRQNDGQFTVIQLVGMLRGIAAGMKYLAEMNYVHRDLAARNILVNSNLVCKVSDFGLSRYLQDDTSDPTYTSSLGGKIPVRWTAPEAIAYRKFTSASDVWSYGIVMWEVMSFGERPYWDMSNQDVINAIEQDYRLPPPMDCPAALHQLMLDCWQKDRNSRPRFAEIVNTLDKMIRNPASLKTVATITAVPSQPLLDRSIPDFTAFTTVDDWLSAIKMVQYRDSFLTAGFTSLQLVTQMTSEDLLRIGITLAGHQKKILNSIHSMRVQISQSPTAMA
# T12 sequence (P09619 33-1106): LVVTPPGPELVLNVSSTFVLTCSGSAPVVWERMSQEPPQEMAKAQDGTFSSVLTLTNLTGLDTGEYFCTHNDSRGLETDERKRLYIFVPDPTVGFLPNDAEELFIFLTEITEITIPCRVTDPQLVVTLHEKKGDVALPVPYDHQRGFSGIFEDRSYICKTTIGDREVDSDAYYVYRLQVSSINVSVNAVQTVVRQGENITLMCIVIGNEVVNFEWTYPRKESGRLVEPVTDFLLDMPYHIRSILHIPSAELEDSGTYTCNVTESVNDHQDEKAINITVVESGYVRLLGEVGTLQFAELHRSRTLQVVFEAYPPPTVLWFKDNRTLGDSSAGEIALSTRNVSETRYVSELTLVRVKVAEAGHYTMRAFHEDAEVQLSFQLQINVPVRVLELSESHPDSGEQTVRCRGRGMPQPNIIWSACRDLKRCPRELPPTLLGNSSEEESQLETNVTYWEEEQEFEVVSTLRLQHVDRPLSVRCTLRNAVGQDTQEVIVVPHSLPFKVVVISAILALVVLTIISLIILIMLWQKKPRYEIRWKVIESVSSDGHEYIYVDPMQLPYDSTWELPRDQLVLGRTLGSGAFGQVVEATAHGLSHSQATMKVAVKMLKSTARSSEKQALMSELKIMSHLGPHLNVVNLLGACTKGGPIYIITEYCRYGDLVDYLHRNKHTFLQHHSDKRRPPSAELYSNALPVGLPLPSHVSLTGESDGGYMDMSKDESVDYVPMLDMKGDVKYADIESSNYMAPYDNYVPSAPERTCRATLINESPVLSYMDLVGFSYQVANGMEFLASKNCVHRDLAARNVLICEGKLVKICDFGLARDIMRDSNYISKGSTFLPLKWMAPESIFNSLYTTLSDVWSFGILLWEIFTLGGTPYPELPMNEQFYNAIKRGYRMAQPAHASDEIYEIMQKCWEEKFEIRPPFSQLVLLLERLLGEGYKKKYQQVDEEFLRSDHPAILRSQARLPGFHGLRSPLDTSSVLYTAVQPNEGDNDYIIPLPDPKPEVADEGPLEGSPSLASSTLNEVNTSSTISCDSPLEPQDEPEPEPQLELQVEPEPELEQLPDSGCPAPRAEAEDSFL
# T9 sequence (P29320 21-983): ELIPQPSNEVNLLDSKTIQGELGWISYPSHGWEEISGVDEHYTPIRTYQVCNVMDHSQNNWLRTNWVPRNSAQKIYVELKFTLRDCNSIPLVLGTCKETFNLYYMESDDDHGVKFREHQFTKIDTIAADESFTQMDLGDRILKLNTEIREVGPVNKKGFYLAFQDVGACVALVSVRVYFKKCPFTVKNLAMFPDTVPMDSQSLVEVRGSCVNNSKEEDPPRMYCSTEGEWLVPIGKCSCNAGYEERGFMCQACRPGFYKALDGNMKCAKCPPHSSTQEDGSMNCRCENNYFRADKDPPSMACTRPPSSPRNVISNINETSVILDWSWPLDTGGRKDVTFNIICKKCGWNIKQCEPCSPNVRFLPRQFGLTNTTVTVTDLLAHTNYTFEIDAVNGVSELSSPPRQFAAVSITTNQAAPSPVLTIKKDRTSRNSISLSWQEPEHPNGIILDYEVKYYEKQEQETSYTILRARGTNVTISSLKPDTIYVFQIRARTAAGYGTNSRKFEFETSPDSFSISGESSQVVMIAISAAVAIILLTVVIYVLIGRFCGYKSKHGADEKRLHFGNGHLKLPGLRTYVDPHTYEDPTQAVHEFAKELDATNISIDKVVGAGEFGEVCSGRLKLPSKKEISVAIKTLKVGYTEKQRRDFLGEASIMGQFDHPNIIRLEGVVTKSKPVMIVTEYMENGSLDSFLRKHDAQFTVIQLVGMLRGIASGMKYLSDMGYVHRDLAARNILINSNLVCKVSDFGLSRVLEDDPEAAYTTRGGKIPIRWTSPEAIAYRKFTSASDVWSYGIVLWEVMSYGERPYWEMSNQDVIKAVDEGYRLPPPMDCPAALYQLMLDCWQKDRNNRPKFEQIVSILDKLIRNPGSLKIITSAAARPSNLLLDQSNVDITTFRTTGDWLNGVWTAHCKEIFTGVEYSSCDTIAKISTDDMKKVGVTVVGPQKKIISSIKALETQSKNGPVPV
# T18 sequence (P08631 whole entry): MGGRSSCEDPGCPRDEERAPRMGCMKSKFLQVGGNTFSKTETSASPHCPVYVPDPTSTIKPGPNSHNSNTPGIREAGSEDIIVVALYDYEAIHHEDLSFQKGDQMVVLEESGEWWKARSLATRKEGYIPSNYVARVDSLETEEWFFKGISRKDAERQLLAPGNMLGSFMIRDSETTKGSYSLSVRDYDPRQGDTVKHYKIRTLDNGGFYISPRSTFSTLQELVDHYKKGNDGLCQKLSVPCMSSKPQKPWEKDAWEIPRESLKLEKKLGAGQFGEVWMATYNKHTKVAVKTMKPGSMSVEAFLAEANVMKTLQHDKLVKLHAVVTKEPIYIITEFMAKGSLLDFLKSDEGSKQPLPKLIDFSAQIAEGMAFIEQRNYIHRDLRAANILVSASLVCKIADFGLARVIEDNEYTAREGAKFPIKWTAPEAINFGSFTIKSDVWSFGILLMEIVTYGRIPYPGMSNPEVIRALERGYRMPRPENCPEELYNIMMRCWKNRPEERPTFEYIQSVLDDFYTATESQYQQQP
# T27 sequence (Q9H3Y6 whole entry): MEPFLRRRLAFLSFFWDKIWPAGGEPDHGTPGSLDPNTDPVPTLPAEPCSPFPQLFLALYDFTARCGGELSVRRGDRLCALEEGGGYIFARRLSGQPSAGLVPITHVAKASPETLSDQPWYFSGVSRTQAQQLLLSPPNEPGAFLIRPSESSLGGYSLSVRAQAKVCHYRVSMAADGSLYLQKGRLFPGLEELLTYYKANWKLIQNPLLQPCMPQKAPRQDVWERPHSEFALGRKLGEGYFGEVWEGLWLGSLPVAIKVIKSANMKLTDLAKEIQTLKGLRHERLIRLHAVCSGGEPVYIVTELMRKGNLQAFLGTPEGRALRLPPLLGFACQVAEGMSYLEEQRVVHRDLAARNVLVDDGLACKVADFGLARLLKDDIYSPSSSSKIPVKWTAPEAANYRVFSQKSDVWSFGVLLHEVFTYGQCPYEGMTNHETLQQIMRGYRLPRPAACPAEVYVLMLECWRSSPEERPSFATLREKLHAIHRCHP
smiles,measurement,setting,value
"Cc1nc(Nc2ncc(C(=O)Nc3c(C)cccc3Cl)s2)cc(N2CCN(CCO)CC2)n1 [Compound A8, N-(2-chloro-6-methylphenyl)-2-((6-(4-(2-hydroxyethyl)piperazin-1-yl)-2-methylpyrimidin-4-yl)amino)thiazole-5-carboxamide, reference compound]",remaining activity at 1 µM,PDGFR-alpha,< 25%
same,remaining activity at 1 µM,FRK,< 25%
same,remaining activity at 1 µM,"ACV-R1; ACV-R1, 1 uM compound",< 25%
same,remaining activity at 1 µM,"p38-alpha; p38-alpha, 1 uM compound",< 25%
same,Mean Papp A > B,MDCK-MDR1 cells,2.4
same,remaining activity at 1 µM,ACK1,< 25%
same,cardiac adverse reactions,[1]; 258 patients taking dasatinib,5.8 % of patients
same,"cardiomyopathy, heart failure congestive, diastolic dysfunction, fatal myocardial infarction, and left ventricular dysfunction",[1]; 258 patients taking dasatinib,1.6 % of patients
same,other cases of severe haemorrhage,[1]; all clinical studies,2 % of patients
same,severe central nervous system (CNS) haemorrhages (including fatalities),[1]; all clinical studies,1 % of patients
same,"severe gastrointestinal haemorrhage, including fatalities",[1]; all clinical studies,4 % of patients
same,QT prolongation,[1]; clinical trials,up to 1 % of CML patients
same,severe fluid retention,[1]; clinical trials,up to 10 % of patients
same,remaining activity at 1 µM,"SIK1; SIK1, 1 uM compound",< 25%
same,remaining activity at 1 µM,BLK,< 25%
same,Mean Papp A > B,MDCK-wild type cells,21
same,remaining activity at 1 µM,"EPHB2; EPHB2, 1 uM compound",< 25%
same,remaining activity at 1 µM,"EPHA3; EPHA3, 1 uM compound, read-out: % residual activity class (FIG. 3)",< 25%
same,remaining activity at 1 µM,TXK,< 25%
same,Residual activity (%) at 1 uM,"RET; RET, 1 µM",39%
same,remaining activity at 1 µM,"RET; RET, 1 uM compound, read-out: % residual activity class (FIG. 3)",25 to 50%
same,remaining activity at 1 µM,RET; [3],< 40%
same,remaining activity at 1 µM,PDGFR-beta; [4],< 25%
same,remaining activity at 1 µM,PDGFR-beta; [5],2%
same,remaining activity at 1 µM,CSK,< 25%
same,remaining activity at 1 µM,ZAK,< 25%
same,remaining activity at 1 µM,TEC,< 25%
same,remaining activity at 1 µM,EPHB1; [6],< 25%
same,remaining activity at 1 µM,"MAP4K5; MAP4K5, 1 uM compound",< 25%
same,remaining activity at 1 µM,HCK,< 25%
same,remaining activity at 1 µM,FGR,< 25%
same,remaining activity at 1 µM,NLK,< 25%
same,remaining activity at 1 µM,DDR2,< 25%
same,remaining activity at 1 µM,"SIK2; SIK2, 1 uM compound",< 25%
same,remaining activity at 1 µM,ACV-RL1,< 25%
same,remaining activity at 1 µM,FYN,< 25%
same,remaining activity at 1 µM,RIPK2,< 25%
same,remaining activity at 1 µM,"ACV-R1B; ACV-R1B, 1 uM compound",< 25%
same,remaining activity at 1 µM,"SIK3; SIK3, 1 uM compound",< 25%
same,remaining activity at 1 µM,SRMS,< 25%
same,remaining activity at 1 µM,ABL2,< 25%
same,remaining activity at 1 µM,LYN,< 25%
"Cc1nc(Nc2ncc(C(=O)Nc3c(Cl)ccnc3C)s2)cc(N2CCN(CCO)CC2)n1 [Compound B3, N-(4-chloro-2-methylpyridin-3-yl)-2-((6-(4-(2-hydroxyethyl)piperazin-1-yl)-2-methylpyrimidin-4-yl)amino)thiazole-5-carboxamide]",remaining activity at 1 µM,EPHA4; [6],< 25%
same,remaining activity at 1 µM,EPHA4; [5],10%
same,remaining activity at 1 µM,PDGFR-alpha,< 25%
same,remaining activity at 1 µM,FRK,< 25%
same,remaining activity at 1 µM,ACV-R1,25 to 50%
same,remaining activity at 1 µM,p38-alpha,25 to 50%
same,Mean recovery A > B,MDCK-MDR1 cells,93%
same,remaining activity at 1 µM,ACK1,< 25%
same,remaining activity at 1 µM,KIT; [6],< 25%
same,remaining activity at 1 µM,KIT; [5],5%
same,remaining activity at 1 µM,FLT3,25 to 50%
same,remaining activity at 1 µM,SIK1,< 25%
same,remaining activity at 1 µM,EPHA1; [6],< 25%
same,remaining activity at 1 µM,EPHA1; [5],3%
same,remaining activity at 1 µM,BLK,< 25%
same,Mean recovery B > A,MDCK-wild type cells,120%
same,remaining activity at 1 µM,EPHB2,< 25%
same,remaining activity at 1 µM,EPHA3; [6],< 25%
same,remaining activity at 1 µM,EPHA3; [5],0%
same,remaining activity at 1 µM,TXK,< 25%
same,remaining activity at 1 µM,RET; [3],~100%
same,remaining activity at 1 µM,PDGFR-beta; [4],< 25%
same,remaining activity at 1 µM,PDGFR-beta; [5],6%
same,remaining activity at 1 µM,CSK,< 25%
same,remaining activity at 1 µM,ZAK,< 25%
same,remaining activity at 1 µM,TEC,< 25%
same,remaining activity at 1 µM,EPHB1; [6],< 25%
same,remaining activity at 1 µM,EPHB1; [5],0%
same,remaining activity at 1 µM,MAP4K5,25 to 50%
same,remaining activity at 1 µM,HCK,< 25%
same,remaining activity at 1 µM,FGR,< 25%
same,remaining activity at 1 µM,NLK,25 to 50%
same,remaining activity at 1 µM,DDR2,< 25%
same,remaining activity at 1 µM,SIK2,< 25%
same,remaining activity at 1 µM,BTK,< 25%
same,remaining activity at 1 µM,ACV-RL1,25 to 50%
same,remaining activity at 1 µM,FYN,< 25%
same,Half-life,[2],1.03 h
same,remaining activity at 1 µM,RIPK2,< 25%
same,remaining activity at 1 µM,ACV-R1B,25 to 50%
same,remaining activity at 1 µM,SIK3,< 25%
same,remaining activity at 1 µM,SRMS,25 to 50%
same,remaining activity at 1 µM,ABL2,< 25%
same,remaining activity at 1 µM,LYN,< 25%
